From ChEMBL document CHEMBL1201862, “PubChem BioAssay data set” (2004)
The source made the active and inactive calls.

Columns and labels:
[1] = Concentration-dependent survival of SW480 colon cancer line, luminescence detection with CellTiter-Glo, half-maximal inhibitory concentration (AID 1117338); assay type: functional
[2] = RKO cell viability reduction, dose response, CellTiter-Glo luminescence (AID 1117322); assay type: functional
[3] = cytotoxicity toward HCT116 cells – cell-based, CellTiter-Glo luminescence, IC50, dose response (AID 1117332); assay type: functional; settings: HCT-116
[4] = SNU-C1 cell viability reduction, dose response, CellTiter-Glo luminescence (AID 1117323); assay type: functional, cell-based
[5] = cytotoxicity toward Colo320 cells – cell-based, CellTiter-Glo luminescence, IC50, dose response (AID 1117334); assay type: functional; settings: COLO 320
[6] = cytotoxicity toward HT-29 cells – cell-based, CellTiter-Glo luminescence, IC50, dose response (AID 1117330); assay type: functional
[7] = CellTiter-Glo luminescent dose response of DLD-1 viability loss (AID 1117352); assay type: functional
Caspase-3 = molecular target: T1, Caspase-3 (Homo sapiens, UniProt P42574); assay type: functional;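 note: Dose-response selectivity test against caspase-3 for candidate inhibitors of sentrin-specific proteases (SENPs)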
T1 sequence (P42574 whole entry): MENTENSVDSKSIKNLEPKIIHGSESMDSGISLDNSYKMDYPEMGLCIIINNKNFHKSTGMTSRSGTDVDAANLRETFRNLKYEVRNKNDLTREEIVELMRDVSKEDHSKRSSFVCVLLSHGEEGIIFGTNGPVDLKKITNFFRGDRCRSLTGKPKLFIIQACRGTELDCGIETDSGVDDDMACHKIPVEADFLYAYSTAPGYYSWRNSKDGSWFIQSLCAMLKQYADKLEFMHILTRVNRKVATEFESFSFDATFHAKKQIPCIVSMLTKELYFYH

[8] = molecular target: T2, Sentrin-specific protease 7 (Homo sapiens, UniProt Q9BQF6); assay type: functional;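 note: Luminescence-based dose-response confirmation of ultra-high-throughput screening hits, measuring inhibition of SENP7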
T2 sequence (Q9BQF6 whole entry): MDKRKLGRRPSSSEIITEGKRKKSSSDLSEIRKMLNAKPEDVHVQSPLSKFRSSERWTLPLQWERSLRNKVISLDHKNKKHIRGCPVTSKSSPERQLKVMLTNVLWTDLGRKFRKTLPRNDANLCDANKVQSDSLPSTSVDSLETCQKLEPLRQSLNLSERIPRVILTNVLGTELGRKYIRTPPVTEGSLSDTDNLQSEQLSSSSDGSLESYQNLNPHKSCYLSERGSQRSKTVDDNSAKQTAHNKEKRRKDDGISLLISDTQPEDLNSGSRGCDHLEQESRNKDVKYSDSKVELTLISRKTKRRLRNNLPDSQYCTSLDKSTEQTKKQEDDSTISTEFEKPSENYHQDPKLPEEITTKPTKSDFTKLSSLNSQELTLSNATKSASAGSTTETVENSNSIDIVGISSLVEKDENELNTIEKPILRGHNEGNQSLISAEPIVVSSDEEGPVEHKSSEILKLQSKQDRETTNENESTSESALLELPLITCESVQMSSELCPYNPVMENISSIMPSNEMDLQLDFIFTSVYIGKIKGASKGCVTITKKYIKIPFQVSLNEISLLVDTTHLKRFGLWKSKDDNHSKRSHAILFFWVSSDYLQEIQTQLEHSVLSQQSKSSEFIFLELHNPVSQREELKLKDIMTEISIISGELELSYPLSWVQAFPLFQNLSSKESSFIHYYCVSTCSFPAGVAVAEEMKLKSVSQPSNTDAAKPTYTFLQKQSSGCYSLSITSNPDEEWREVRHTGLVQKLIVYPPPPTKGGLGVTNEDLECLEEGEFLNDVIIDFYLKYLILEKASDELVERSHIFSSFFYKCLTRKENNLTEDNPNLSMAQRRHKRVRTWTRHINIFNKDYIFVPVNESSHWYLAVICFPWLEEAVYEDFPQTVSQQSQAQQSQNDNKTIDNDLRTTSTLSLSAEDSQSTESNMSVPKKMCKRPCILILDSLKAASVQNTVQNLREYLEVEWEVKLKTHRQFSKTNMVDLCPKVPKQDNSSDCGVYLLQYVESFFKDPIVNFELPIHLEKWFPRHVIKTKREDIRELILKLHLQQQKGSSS

[9] = molecular target: T3, Sentrin-specific protease 6 (Homo sapiens, UniProt Q9GZR1); assay type: functional;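 note: Luminescence-based dose-response confirmatory assay of SENP6 inhibition, following up an ultra-high-throughput screen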
T3 sequence (Q9GZR1 whole entry): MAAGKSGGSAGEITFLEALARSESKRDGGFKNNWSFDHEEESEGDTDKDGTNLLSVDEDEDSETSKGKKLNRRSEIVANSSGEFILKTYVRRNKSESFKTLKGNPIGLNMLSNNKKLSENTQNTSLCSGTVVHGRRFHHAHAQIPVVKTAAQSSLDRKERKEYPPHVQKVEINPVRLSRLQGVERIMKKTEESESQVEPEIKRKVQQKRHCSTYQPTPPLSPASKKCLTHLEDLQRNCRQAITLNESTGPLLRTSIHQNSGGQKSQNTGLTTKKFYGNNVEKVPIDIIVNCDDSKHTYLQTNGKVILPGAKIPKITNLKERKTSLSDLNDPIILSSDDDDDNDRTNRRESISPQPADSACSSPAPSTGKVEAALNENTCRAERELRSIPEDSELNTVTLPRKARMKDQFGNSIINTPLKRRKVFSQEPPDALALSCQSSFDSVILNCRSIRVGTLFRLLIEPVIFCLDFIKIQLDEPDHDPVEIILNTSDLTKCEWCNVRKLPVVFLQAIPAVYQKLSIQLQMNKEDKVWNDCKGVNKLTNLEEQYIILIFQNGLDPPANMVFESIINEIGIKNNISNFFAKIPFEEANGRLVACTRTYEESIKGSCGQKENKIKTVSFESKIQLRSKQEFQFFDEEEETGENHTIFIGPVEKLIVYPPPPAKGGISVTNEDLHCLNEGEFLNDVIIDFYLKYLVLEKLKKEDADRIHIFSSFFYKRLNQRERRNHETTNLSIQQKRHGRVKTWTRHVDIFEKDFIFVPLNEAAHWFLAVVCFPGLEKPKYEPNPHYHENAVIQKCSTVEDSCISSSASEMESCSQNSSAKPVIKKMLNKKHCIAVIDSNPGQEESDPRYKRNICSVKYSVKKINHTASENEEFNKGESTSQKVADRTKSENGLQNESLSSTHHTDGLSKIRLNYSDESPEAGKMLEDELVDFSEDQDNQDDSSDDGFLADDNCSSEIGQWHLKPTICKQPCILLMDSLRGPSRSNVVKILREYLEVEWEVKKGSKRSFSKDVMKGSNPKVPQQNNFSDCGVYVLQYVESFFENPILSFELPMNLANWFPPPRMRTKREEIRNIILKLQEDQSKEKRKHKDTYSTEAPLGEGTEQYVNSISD

[10] = molecular target: T4, Sentrin-specific protease 8 (Homo sapiens, UniProt Q96LD8); assay type: functional;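 note: luminescence read-out of SENP8 inhibition, dose-response confirmation following an ultra-high-throughput screen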
T4 sequence (Q96LD8 whole entry): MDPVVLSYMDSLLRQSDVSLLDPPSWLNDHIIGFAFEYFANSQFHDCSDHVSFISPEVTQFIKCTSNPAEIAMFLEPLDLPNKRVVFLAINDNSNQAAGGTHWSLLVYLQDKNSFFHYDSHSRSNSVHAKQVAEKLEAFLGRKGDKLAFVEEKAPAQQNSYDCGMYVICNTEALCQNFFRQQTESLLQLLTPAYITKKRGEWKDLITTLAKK

Protein skinhead-1 = molecular target: T5, Protein skinhead-1 (Caenorhabditis elegans, UniProt P34707); assay type: functional
T5 sequence (P34707 whole entry): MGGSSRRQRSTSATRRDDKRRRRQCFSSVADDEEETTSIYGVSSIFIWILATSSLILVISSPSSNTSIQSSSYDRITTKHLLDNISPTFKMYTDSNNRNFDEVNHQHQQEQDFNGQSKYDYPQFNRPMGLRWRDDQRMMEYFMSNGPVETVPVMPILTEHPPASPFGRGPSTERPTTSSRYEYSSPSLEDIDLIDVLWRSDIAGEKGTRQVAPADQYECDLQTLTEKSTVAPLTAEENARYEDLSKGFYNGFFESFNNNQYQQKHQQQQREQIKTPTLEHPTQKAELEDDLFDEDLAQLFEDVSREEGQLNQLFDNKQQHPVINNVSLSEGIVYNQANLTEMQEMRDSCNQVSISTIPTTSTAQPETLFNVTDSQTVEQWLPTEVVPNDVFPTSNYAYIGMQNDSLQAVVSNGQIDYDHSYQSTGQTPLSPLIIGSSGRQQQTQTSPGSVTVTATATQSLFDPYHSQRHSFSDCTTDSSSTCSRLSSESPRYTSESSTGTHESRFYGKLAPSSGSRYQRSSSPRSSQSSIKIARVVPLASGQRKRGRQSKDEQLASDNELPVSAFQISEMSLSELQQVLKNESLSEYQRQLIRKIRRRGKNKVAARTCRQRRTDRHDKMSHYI

[11] = molecular target: T6, Oxysterols receptor LXR-beta (Homo sapiens, UniProt P55055); assay type: functional, cell-based;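 note: Cell-based luminescence dose-response assay of agonist activity at LXR, run as a confirmatory counterscreen to a daf-12 agonist screen; HEK293 cells with Gal4-LXR fusion and GAL4-driven luciferase reporter; agonist potency from rising luciferase signal of a Gal4-LXR reporter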
T6 sequence (P55055 whole entry): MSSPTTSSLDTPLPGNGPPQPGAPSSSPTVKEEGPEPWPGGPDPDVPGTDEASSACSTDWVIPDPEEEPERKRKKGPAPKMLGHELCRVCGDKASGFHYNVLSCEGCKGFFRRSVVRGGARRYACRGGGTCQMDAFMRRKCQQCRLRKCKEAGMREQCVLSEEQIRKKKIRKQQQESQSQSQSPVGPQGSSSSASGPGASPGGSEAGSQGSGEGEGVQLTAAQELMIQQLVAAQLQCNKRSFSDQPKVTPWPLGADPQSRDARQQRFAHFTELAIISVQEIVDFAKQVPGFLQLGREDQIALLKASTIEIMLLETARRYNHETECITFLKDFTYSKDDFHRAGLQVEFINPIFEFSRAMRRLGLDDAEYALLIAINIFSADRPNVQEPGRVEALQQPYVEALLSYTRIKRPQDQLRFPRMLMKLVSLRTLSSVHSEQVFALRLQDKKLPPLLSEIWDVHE

Estrogen receptor beta = Estrogen receptor beta (Homo sapiens, UniProt Q92731);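 note: recombinant ER-beta bound to coactivator SRC1 peptide in presence of estradiol agonist; inhibitors block coactivator peptide binding and lower the FRET signal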
Estrogen receptor beta, sequence (Q92731 whole entry): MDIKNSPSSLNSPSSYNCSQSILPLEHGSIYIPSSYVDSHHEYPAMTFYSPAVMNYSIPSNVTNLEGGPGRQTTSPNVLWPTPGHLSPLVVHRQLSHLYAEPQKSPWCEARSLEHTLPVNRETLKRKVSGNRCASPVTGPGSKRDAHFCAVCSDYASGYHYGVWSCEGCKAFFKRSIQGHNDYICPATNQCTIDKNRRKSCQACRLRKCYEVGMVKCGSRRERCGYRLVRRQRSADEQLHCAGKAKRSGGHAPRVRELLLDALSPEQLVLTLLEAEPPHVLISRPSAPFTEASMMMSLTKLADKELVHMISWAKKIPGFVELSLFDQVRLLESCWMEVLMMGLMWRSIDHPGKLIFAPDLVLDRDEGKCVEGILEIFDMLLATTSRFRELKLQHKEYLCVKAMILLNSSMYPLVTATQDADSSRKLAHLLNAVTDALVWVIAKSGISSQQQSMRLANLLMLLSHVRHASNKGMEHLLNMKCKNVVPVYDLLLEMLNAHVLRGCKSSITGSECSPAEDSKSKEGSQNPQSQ

Kallikrein-7 = Kallikrein-7 (Homo sapiens, UniProt P49862); assay: Fluorescence Intensity-based biochemical primary high throughput dose response assay to identify activators of kallikrein-7 (K7) zymogen.
Kallikrein-7, sequence (P49862 whole entry): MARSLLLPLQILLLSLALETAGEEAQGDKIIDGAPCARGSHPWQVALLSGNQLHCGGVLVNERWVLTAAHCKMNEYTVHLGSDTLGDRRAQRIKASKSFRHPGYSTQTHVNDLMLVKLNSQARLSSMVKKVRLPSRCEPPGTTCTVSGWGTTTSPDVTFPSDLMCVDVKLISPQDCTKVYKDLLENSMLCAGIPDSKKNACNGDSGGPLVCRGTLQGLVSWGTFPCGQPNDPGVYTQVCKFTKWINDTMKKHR

[12] = molecular target: T7, Ubiquitin carboxyl-terminal hydrolase BAP1 (Homo sapiens, UniProt Q92560); assay: BAP1 deubiquitinase inhibitors, dose response, biochemical (AID 714); assay type: functional
T7 sequence (Q92560 whole entry): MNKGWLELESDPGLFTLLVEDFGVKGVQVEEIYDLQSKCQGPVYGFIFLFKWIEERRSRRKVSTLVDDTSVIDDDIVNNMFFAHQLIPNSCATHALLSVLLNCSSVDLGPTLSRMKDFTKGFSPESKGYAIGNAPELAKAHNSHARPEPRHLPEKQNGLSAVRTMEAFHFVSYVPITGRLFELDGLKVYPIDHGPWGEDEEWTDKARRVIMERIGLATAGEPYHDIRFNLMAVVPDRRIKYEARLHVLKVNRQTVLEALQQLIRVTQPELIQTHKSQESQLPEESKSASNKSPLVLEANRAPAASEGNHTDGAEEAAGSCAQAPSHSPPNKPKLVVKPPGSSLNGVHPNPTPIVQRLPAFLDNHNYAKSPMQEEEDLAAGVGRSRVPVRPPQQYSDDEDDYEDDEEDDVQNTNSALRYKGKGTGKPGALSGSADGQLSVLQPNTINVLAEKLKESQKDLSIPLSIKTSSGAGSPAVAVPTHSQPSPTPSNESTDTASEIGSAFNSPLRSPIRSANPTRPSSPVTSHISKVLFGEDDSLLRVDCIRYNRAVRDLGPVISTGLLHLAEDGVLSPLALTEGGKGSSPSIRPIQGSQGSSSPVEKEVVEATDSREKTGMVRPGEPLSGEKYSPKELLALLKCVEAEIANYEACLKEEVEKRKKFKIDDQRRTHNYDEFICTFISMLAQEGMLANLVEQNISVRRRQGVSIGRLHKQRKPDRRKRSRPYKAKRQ

## CNS(=O)(=O)Cc1ccc2[nH]cc(CCN(C)C)c2c1
[1]
  IC50: > 6.67 µM (inactive)
[2]
  IC50: > 20 µM (inactive)
[3]
  IC50: > 20 µM (inactive)
[4]
  IC50: > 20 µM (inactive)
[5]
  IC50: > 20 µM (inactive)
[6]
  IC50: > 20 µM (inactive)
[7]
  IC50: > 20 µM (inactive)

## Cc1ccccc1-c1nc(-c2ccc(Br)o2)no1
Caspase-3
  IC50: 17 µM (active)
[8]
  IC50: 4.23 µM (active)
[9]
  IC50: 23.5 µM (active)
[10]
  IC50: 35.8 µM (active)
Protein skinhead-1
  IC50: 39.7 µM (active)
[11]
  EC50: > 67.6 µM (inactive)
cells
  EC50: > 67.6 µM (inactive)

## Cc1ccc(CCNS(=O)(=O)c2c[nH]cn2)cc1
Estrogen receptor beta
  IC50: > 50 µM (not active)

## CCOC(=O)CC(=O)CSc1nc(C)cc(-c2cccnc2)c1C#N
Kallikrein-7
  EC50: 8.07 µM (active)

## COc1ccc(CNS(=O)(=O)c2ccc(S(=O)(=O)N3CCCCC3)cc2)cc1
[12]
  IC50: > 50 µM (not active)

## Cc1cc(C)n2cc(CSCc3ccccc3)nc2n1
Kallikrein-7
  EC50: 49.5 µM (inactive)
